# Reference: patent US20240307351A1, “AGENT FOR ANTI-AGING OR FOR CELLULAR REJUVENATION” (TOHOKU UNIVERSITY, priority 2022, published 2024)
# Assays:
# [1] = tested on: SIRTI protein; assay: Amount of SIRT1 protein in RH30 cells by Western blotting; format: cell-based, human; conditions: 30 μM, 24 hours, compared with Control group (DMSO)
# Procedure: RH30 cells (human rhabdomyosarcoma cell line; gli gene expression+, N-myc gene expression+) at 1×10^6 cell/dish were seeded and cultured in a dish containing 10 mL of a culture solution (low-glucose-containing DMEM medium (glucose concentration of 1.0 g/dL) to which 10 wt. % of FBS was added). One day later, Compound #5 was added to have a concentration of 30 μM, and the mixture was cultured for 24 hours ([Compound #5 addition group]). Compound #9, Compound #13, Compound #21, Compound #30, or Compound #35 as the present compound was added in place of Compound #5, and the mixture was cultured in the same manner, respectively, as [Compound #9 addition group], [Compound #13 addition group], [Compound #21 addition group], [Compound #30 addition group], and […].
# On the other hand, as a control, DMSO (dimethyl sulfoxide) was added to have a concentration of 0.2 wt. %, and the mixture was cultured for 24 hours ([Control group]).
# After completion of culture, the cells were recovered, disrupted by a typical method, and the amount of each of the proteins (SIRTI proteins, etc.) in the cells was detected by Western blotting. Further, the results of quantification of each band in the detection results of the Western blotting in FIG. 6 through normalization with the band of β-actin as a loading control are shown in FIG. 7.
# [2] = Liver function markers in blood of C57BL6 mice; format: in vivo, mouse; conditions: C57BL6 mice (8 weeks old), oral, 50 or 150 mg/kg/day, 7 days, vs DMSO corn oil
# Procedure: Compound #4 of DMSO corn oil was orally administered to C57BL6 mice (8 weeks old) at a dose of 50 mg/kg/day per kg of mouse weight for 7 days ([Group L]).
# In addition, Compound #4 of DMSO corn oil was orally administered to C57BL6 mice (8 weeks old) at a dose of 150 mg/kg/day per kg of mouse weight for 7 days ([Group H]).
# Further, DMSO corn oil was orally administered to C57BL6 mice (8 weeks old) for 7 days ([Control group]).
SMILES,amount of SIRTI protein in cells [1],GOT in blood [2],GPT in blood [2]
CC(=O)N1CCC(CC(C(=O)O)c2c[nH]c3ccccc23)CC1 (centres unmarked) [Compound #9],increased,,
CCCCCCn1cc(CC(=O)O)c2ccccc21 [Compound #30],increased,,
O=C(CC(C(=O)O)c1c[nH]c2ccccc12)c1ccc(F)cc1 (centres unmarked) [Compound #4],,decreased,decreased
CC(C)(C)OC(=O)NCCCCCCC(C)(C(=O)O)c1c[nH]c2ccccc12 (centres unmarked) [Compound #13],increased,,
